From patent US12458614B2, “Therapeutic agents for improved mobility and cognitive function and for treating neurodegenerative diseases and lysosomal storage disorders” (priority 2017, dated 2025)

Assays:
[1] = tested on: Niemann-Pick A (NPA) patient fibroblasts; assay: Lysosomal volume via LysoTracker; format: cell-based, human; conditions: 1 mM, 6 days
[2] = tested on: Mucolipidosis Type II (MLII) patient fibroblasts; assay: Lysosomal volume via LysoTracker; format: cell-based, human; conditions: 1 mM, 6 days
[3] = tested on: Aspartylglucosaminuria patient fibroblasts; assay: Lysosomal volume via LysoTracker; format: cell-based, human; conditions: 1 mM, 6 days
[4] = tested on: Tay-Sachs disease patient fibroblasts; assay: Glycosphingolipid (GSL) levels via HPLC; format: cell-based, human; conditions: 1 mM for 6 days, p<0.05
[5] = tested on: patients with ataxia telangiectasia; assay: Case studies, ataxia telangiectasia (SARA, SCAFI, video-oculography); format: in vivo, human
Text: For example, to evaluate overall neurological status, mDRS, a four-domain scale (ambulation, manipulation, language and swallowing), may be applied. Cerebellar function may be evaluated using SARA, an eight-item clinical rating scale (gait, stance, sitting, speech, fine motor function and taxis; range 0-40, where 0 is the best neurological status and 40 the worst), and SCAFI, comprising the 8-m-Walking-Time (8MW; performed by having patients walking twice as quickly as possible from one line to another excluding turning), 9-Hole-Peg-Test (9HPT) and the number of “PATA” repetitions over 10 s. Subjective impairment and quality of life may be evaluated using the EQ-5D-5L questionnaire and VAS. To assess ocular motor function, 3-dimensional videooculography (EyeSeeCam) may be used to measure the peak velocity of saccades, gain of smooth pursuit, peak slow phase velocity of gaze-evoked nystagmus (gaze-holding function), peak slow phase velocity of optokinetic nystagmus, and gain of horizontal vestibulo-ocular reflex. To evaluate the cognitive state, WAIS-R or WISC-IV, and MoCA, assessing different cognitive domains, including attention and concentration, executive functions, memory, language, visuoconstructional skills, conceptual thinking, calculations, and orientation with a maximum of 30 points and a cut-off score of 26, may be used. The skilled person will know how to perform these and other such tests.
After one month of treatment, the patient was re-evaluated. […] Examination indicated a Scale for Assessment and Rating of Ataxia (SARA) score of 15.5/40. Results from the patient's Spinocerebellar Ataxia Functional Index (SCAFI) analysis were: • Mean 8-meters Walking Test (8MW): 18.5 s • MW 9-Hole Pegboard Test Dominant (9HPTD) (right): 77.9 s • MW 9-Hole Pegboard Test Non-Dominant (9HPTND): 101.3 s • MW PATA Word Test: 13 • Visual analog scale (as evaluated by the patient): 85
After one month of treatment, the patient was re-evaluated. […] Examination indicated a Scale for Assessment and Rating of Ataxia (SARA) score of 23.5/40.
After slightly over 7 months of treatment, the patient was re-evaluated. […] Examination indicated a Scale for Assessment and Rating of Ataxia (SARA) score of 21.5/40.
After slightly over 1 month of treatment, the patient was re-evaluated. […] The patient also reported that drinking was easier and no longer needed a straw. […] Examination indicated a Scale for Assessment and Rating of Ataxia (SARA) score of 18.5/40.
After about 1 month of treatment, the patient was re-evaluated. […] On medication, they were able to walk with only holding the caregiver's hand.
The patient was evaluated after one month and six months of treatment, respectively. […] The patient, however, was suffering from anxiety, which would be expected to negatively influence the response.

[6] = tested on: amyloid precursor protein C-terminal fragments (APP-CTFs); assay: APP-CTF levels relative to total APP in the cerebellum; format: in vivo, mouse; conditions: NPC1−/− mice, 0.1 g/kg body weight daily from 3 weeks, sacrificed at 8 weeks
Procedure: The Niemann-Pick Disease Type C (NPC) mouse model shares a number of pathological features with Alzheimer's disease (AD) as described herein. […] Mice were sacrificed at 8 weeks of age. Levels of amyloid precursor protein C-terminal fragments (APP-CTFs) were evaluated relative to total amyloid precursor protein (APP) levels in the cerebellum for wild type, untreated wild type NPC1^−/− mice, and AL-treated wild type NPC1^−/− mice. Levels of microtubule-associated protein 1A/1B-light chain 3-phosphatidylethanolamine conjugate (LC3-II) were also evaluated relative to levels of tubulin loading control for wild type, untreated wild type NPC1^−/− mice, and AL-treated wild type NPC1^−/− mice.

[7] = tested on: person with progressive postural imbalance; assay: Case study Example 22, get up and go test and cognition; format: in vivo, human
Procedure: Treatment with acetyl-DL-leucine (Tanganil®) was started because the patient was suffering from imbalance and gait disorder. They initiated a one-month course comprising nine 500 mg tablets taken three times a day (TID) with meals, i.e., a total daily dosage of 4.5 g.
The ability of the subject to move was measured in a home setting “get up and go test”. This test involved the subject rising unaided from their chair and walking the length of their living area to their kitchen. This was timed over seven consecutive days prior to treatment, and over the next seven consecutive days once treatment with Tanganil® had started.
The same subject then initiated another month of treatment, i.e. a further one-month course comprising nine 500 mg capsules taken TID with meals (total daily dosage of 4.5 g).

[8] = tested on: person with balance disorder/senile gait disorder; assay: Case study Example 23; format: in vivo, human
[9] = tested on: person with gait problems and postural imbalance; assay: Case study Example 25, quantitative gait analysis; format: in vivo, human
Procedure: The patient was then treated with Tanganil® (500 mg) in 3 separate doses throughout the day—1 g upon waking, 1 g prior to lunch and 1 g prior to the evening meal for one week, followed by 2 g upon waking, 1.5 g prior to lunch and 1.5 g prior to the evening meal.

[10] = A-T Patient 3, after slightly over 7 months
[11] = A-T Patient 4, after slightly over 1 month
[12] = A-T Patient 5, after about 1 month
[13] = A-T Patient 5, after almost 7 months

For CC(=O)NC(CC(C)C)C(=O)O (racemic) [acetyl-DL-leucine], the “LysoTracker fluorescence vs untreated disease fibroblasts” value [1] was “statistically significant reduction in LysoTracker fluorescence toward control level”, the “LysoTracker fluorescence vs untreated disease fibroblasts” value [2] was “statistically significant reduction in LysoTracker fluorescence toward control level” and the “LysoTracker fluorescence vs untreated disease fibroblasts” value [3] was “trend in reducing LysoTracker fluorescence toward control level”. For the same molecule, the GSL storage [4] was “decrease was statistically significant”, the “Video-oculography (summary)” value ([5]; A-T Patient 1, after one month) was “significant improvement of fixation stability and decrease of intensity of downbeat-nystagmus” and the Caregiver report ([5]; A-T Patient 1, after one month, 5 g/day) was “improvement of speech and gait”. The “9-Hole Pegboard Test Dominant (9HPTD)” value ([5]; A-T Patient 2, after one month) was 300 s, the “Mean 8-meters Walking Test (8MW)” value ([5]; A-T Patient 2, after one month) was “not able to perform without support” and the “Video-oculography (summary)” value ([5]; A-T Patient 2, after one month) was “improvement of fixation stability and significant improvement of downbeat-nystagmus intensity”. For the same molecule, the Caregiver report ([5]; A-T Patient 2, after one month, 5 g/day) was “improvement of fine motor function, hand tremor, and speech”, the “Mean 8-meters Walking Test (8MW)” value [5, 10] was “not able to perform” and the “Video-oculography (summary)” value [5, 10] was “significant improvement of fixation stability and decrease of intensity of gaze-holding nystagmus at all positions”. For the same molecule, the “Caregiver and patient report” value ([5]; A-T Patient 3, after slightly over 7 months, 5 g/day) was “general improvement of well-being”, the “Mean 8-meters Walking Test (8MW)” value [5, 11] was “not able to perform” and the “Video-oculography (summary)” value [5, 11] was “general improvement of fixation stability and decrease of intensity of spontaneous and gaze-holding nystagmus at all positions”. The “Patient and family report” value ([5]; A-T Patient 4, after slightly over 1 month, 5 g/day) was “improvement in handwriting”, the Body weight gained [5, 12] was 1.5 kg and the “Mean 8-meters Walking Test (8MW)” value [5, 12] was “not able to walk without support”. For the same molecule, the “Gait (reported by parent)” value ([5]; A-T Patient 5, after about 1 month, 5 g/day) was “significant improvement of stability of the gait”, the “Further body weight gained” value [5, 13] was 3 kg and the “Gait (reported by parent)” value [5, 13] was “significantly more stable gait”. For the same molecule, the Clinical re-evaluation ([5]; A-T Patient 5, after slightly over a year) was “improved social interaction, activity, and agility”, the Adverse observation ([5]; A-T Patient 5, after slightly over a year, suspected infantile migraine) was “repeatedly occurring frontal localized pain with vomiting in the morning” and the Clinical evaluation ([5]; A-T Patient 6, after one month, 1.5 g/day then 3 g/day) was “increased fine motor skills with reduced hand tremor”. The Clinical evaluation ([5]; A-T Patient 6, after six months) was “stable general conditions, stable gait and stance, and improved handwriting”, the “APP-CTF levels relative to total APP, cerebellum” value [6] was “lowering of APP-CTFs” and the “Cognitive function (noticed by family)” value ([7]; after 2-3 weeks of treatment) was “significant improvement in their cognitive function, spatial awareness and general demeanor”. For the same molecule, the “Faster than pre-treatment, get up and go test” value ([7]; on treatment, 4.5 g daily) was 25%, the “Average time, get up and go test” value ([7]; once treatment had started, 4.5 g daily, 40±3 prior to treatment) was 30 ± 2 s and the Side effects ([7]; over eighteen months, 4.5 g per day) was “no side effects”. The “Improvements on second treatment” value ([7]; second one-month course, 4.5 g daily) was “rapidly returned”, the Frequency of falls ([8]; Day 14) was “significant reduction in the frequency of falls” and the Hypokinetic-rigid syndrome ([8]; Day 14) was “No change of hypokinetic-rigid syndrome”. The Dizziness symptoms ([8]; Day 14, 3 then 5 gram per day) was “improvement of dizziness symptoms”, the Dizziness after suspension ([8]; two days after suspension of treatment) was “increase of dizziness symptoms” and the Tolerability ([9]; 3 g/day one week then 5 g/day) was “very well tolerated”. The “Gait and imbalance (patient and child report)” value ([9]; 3 weeks after beginning treatment) was “gait and imbalance was significantly improved”, the “% of the time in the gait cycle in which both feet are in contact with the ground” value ([9]; after 3 weeks' treatment) was 25.5% and the Cadence ([9]; after 3 weeks' treatment) was 100 steps/minute. For the same molecule, the “Coefficient of variation (CV) of stride time” value ([9]; after 3 weeks' treatment) was 1.8, the Maximum walking speed ([9]; after 3 weeks' treatment) was 157 cm/s and the Natural walking speed ([9]; after 3 weeks' treatment) was 96 cm/s. The Spreading width ([9]; after 3 weeks' treatment) was 8.1 cm and the Step cycle length ([9]; after 3 weeks' treatment) was 116 cm.
